The record followed here is paper PMC7738871, “Covalent modification of Keap1 at Cys77 and Cys434 by pubescenoside a suppresses oxidative stress-induced NLRP3 inflammasome activation in myocardial ischemia-reperfusion injury” (Theranostics, 2021).

In assay [1] the test system is T1, interaction of Keap1 and Cul3.
T1 construct: expressed in transfected cells; host or cells: 293T
Put plainly: Co-IP of Keap1 and Cul3 in 293T cells. The class given is cell-based, human. On the procedure:
Alkylation of the BTB domain of Keap1 by covalent modifiers contributes to the disruption of the Keap1-Cul3 interactions, leading to Nrf2 activation. Next, we investigated the effect of PBA on the modulation of Nrf2 ubiquitination as Nrf2 stability is controlled by ubiquitin-mediated proteasomal degradation. First, 3X Flag-Keap1, Myc-Nrf2 and Ub plasmids were transfected into 293T cells and then, the cells were treated with 30 μM PBA for 20 h and 5 μM MG132 for another 4 h. Cell lysates were pulled down using anti-Myc beads, and immunopurified Nrf2 was examined for the occurrence of Ub by western blotting. […]
Figure 6 PBA suppresses Keap1-mediated ubiquitination of Nrf2 by disrupting the interaction between Cul3 and Keap1. […] The cell lysates were immunoprecipitated using anti-Myc beads, and the ubiquitination level was evaluated using the anti-Ub antibody. […] The cell lysates were immunoprecipitated with the anti-Flag antibody, and the level of Nrf2 was assessed using the anti-Nrf2 antibody. […] The cell lysates were immunoprecipitated with the anti-Flag antibody, and the level of Cul3 was measured using the anti-Cul3 antibody. #p < 0.05, ##p < 0.01, ###p < 0.001, the control vs DMSO; *p < 0.05,**p < 0.01, ***p < 0.001, PBA or tBHQ vs DMSO. […] Cell viability was measured by MTT assays. #p < 0.05, ###p < 0.001, the control vs OGD/R; **p < 0.01, ***p < 0.001, OGD/R+PBA vs OGD/R.

Assay [2] relates to T2, interaction between Keap1 and Nrf2.
T2 construct: expressed in transfected cells; host or cells: 293T
Put plainly: Co-IP of Keap1 and Nrf2 in 293T cells. The class given is cell-based, human. As to the method: Figure 6 PBA suppresses Keap1-mediated ubiquitination of Nrf2 by disrupting the interaction between Cul3 and Keap1. (A and B) PBA suppressed Nrf2 ubiquitination in a Keap1-Cys77 and C434-dependent manner. First, 293T cells were transfected with WT-Keap1 or C77S and C434S-Keap1, Myc-Nrf2, and Ub plasmids for 24 h and treated with 30 μM PBA. The cell lysates were immunoprecipitated using anti-Myc beads, and the ubiquitination level was evaluated using the anti-Ub antibody. (C and D) PBA induced the dissociation of the Nrf2-Keap1 complex. Then, 293T cells were cotransfected with WT-Keap1 and Flag-Nrf2 plasmids for 24 h and treated with 30 μM PBA for 12 h. The cell lysates were immunoprecipitated with the anti-Flag antibody, and the level of Nrf2 was assessed using the anti-Nrf2 antibody. (E and F) PBA disrupted the interaction between Cul3 and Keap1. The 293T cells were transfected with the WT-Keap1 or C77S-C434S-Keap1 plasmids for 24 h and treated with 30 μM PBA for 12 h. The cell lysates were immunoprecipitated with the anti-Flag antibody, and the level of Cul3 was measured using the anti-Cul3 antibody. #p < 0.05, ##p < 0.01, ###p < 0.001, the control vs DMSO; *p < 0.05,**p < 0.01, ***p < 0.001, PBA or tBHQ vs DMSO. […] Primary mouse cardiomyocytes were transfected with mouse WT-Keap1 or C77S and C434S-Keap1 mutant vectors. After 24 h, the cells were treated with the indicated doses of PBA and subjected to OGD conditions as described in the Method section for 3 h and under normal conditions for another 18 h. Cell viability was measured by MTT assays. #p < 0.05, ###p < 0.001, the control vs OGD/R; **p < 0.01, ***p < 0.001, OGD/R+PBA vs OGD/R.
To investigate the effect of PBA on the interaction of Keap1 and Nrf2, we transfected 293T cells with Flag-Keap1 and Myc-Nrf2 plasmids, and treated them with 30 μM PBA for 24 h. The protein expression of Nrf2 was measured by western blotting analysis followed by immunoprecipitation with Flag beads.

“Also recorded” adds a separate entry of the source.

`C=C(COC(=O)C=Cc1ccc(O)c(O)c1)C(O)COC1OC(CO)C(O)C(O)C1O` (stereo not shown) [PBA, pubescenoside A]: in assay [1] (Cys77S and Cys434-Keap1 mutant cells), the “disruption of Keap1 and Cul3 interaction in mutant cells” value is reported as “blocked”. For the same compound, the “interaction of Keap1 and Cul3 (Co-IP)” value in assay [1] (WT-Keap1 293T cells, 30 μM PBA 12 h) was “could disrupt”. Moreover, the “Keap1-Nrf2 complex with mutant Keap1 (Co-IP)” value in assay [2] (Cys77S and Cys434S-Keap1 mutant vectors) is on record as “unable to block”. In addition, the “interaction between Keap1 and Nrf2 (Co-IP)” value in assay [2] (WT-Keap1, 30 μM PBA) is reported as “significantly disturbed; also recorded: disrupted”.
